Test results published in ChEMBL document CHEMBL5346964, “Discovery of LNP1892: A Precision Calcimimetic for the Treatment of Secondary Hyperparathyroidism” (J Med Chem, 2023).

How the values were obtained:
[1] = Clearance in Sprague-Dawley rat at 0.3 mg/kg, iv measured upto 24 hrs by LC-MS/MS analysis; details: in vivo
[2] = AUClast in Sprague-Dawley rat at 0.3 mg/kg, iv measured upto 24 hrs by LC-MS/MS analysis; type: ADME, organism-based; parameters: dose 0.3 mg/kg, time < 24 hrs, route iv; details: in vivo
[3] = Microsomal stability in rat liver microsomes assessed as parent compound remaining at 1 uM measured upto 30 mins in presence of NADPH by LC-MS/MS analysis; type: ADME, Microsome; details: read-out: Stability
[4] = AUClast in Sprague-Dawley rat at 1 mg/kg, po measured upto 24 hrs by LC-MS/MS analysis; type: ADME, organism-based; parameters: dose 1 mg/kg, time < 24 hrs, route po; details: in vivo
[5] = Microsomal stability in human liver microsomes assessed as parent compound remaining at 1 uM measured upto 30 mins in presence of NADPH by LC-MS/MS analysis; type: ADME, Microsome; details: liver microsomes, read-out: Stability
[6] = Half life in Sprague-Dawley rat at 1 mg/kg, po measured upto 24 hrs by LC-MS/MS analysis; details: in vivo
[7] = in vivo; details: Sprague-Dawley, rat, iv, 0.3 mg/kg
Description: Cmax in Sprague-Dawley rat at 0.3 mg/kg, iv measured upto 24 hrs by LC-MS/MS analysis

[8] = in vivo; details: Sprague-Dawley, rat, po, 1 mg/kg
Description: Tmax in Sprague-Dawley rat at 1 mg/kg, po measured upto 24 hrs by LC-MS/MS analysis

[9] = Volume of distribution at steady state in Sprague-Dawley rat at 0.3 mg/kg, iv measured upto 24 hrs by LC-MS/MS analysis; details: in vivo
[10] = in vivo; details: Sprague-Dawley, rat, po, 1 mg/kg; remark: listed apart in the source
Description: Cmax in Sprague-Dawley rat at 1 mg/kg, po measured upto 24 hrs by LC-MS/MS analysis

[11] = Half life in Sprague-Dawley rat at 0.3 mg/kg, iv measured upto 24 hrs by LC-MS/MS analysis; details: in vivo
[12] = system: Rattus norvegicus; experiment: Acute effect on parathyroid hormone in overnight fasted adenine diet-induced chronic kidney disease Wistar rat model assessed as reduction in plasma PTH level at 10 mg/kg, po measured after 4 hrs of post treatment by sandwich ELISA analysis; type: functional; parameters: scale not given: the % may be the effect or the level left
[13] = system: Rattus norvegicus; experiment: Chronic effect on parathyroid hormone in overnight fasted adenine diet-induced chronic kidney disease Wistar rat model plasma assessed as reduction in plasma PTH level at 10 mg/kg, po qd measured after 27 days of post treatment by sandwich ELISA analysis; type: functional; parameters: scale not given: the % may be the effect or the level left; details: time 27 day
[14] = biological target: T1, hERG (Homo sapiens, UniProt Q12809); experiment: Inhibition of hERG at 1 uM relative to control; type: toxicity
[15] = Volume of distribution at steady state in Sprague-Dawley rat at 1 mg/kg, iv measured upto 24 hrs by LC-MS/MS analysis; type: ADME, organism-based; details: in vivo, read-out: Vdss
[16] = Clearance in Sprague-Dawley rat at 1 mg/kg, iv measured upto 24 hrs by LC-MS/MS analysis; type: ADME, organism-based; details: in vivo
[17] = Effect on parathyroid hormone in overnight fasted Sprague-Dawley rat assessed as reduction in plasma PTH level at 10 mg/kg, po measured after 6 hrs of post treatment by sandwich ELISA analysis (reference value: 33%); type: functional; parameters: scale not given: the % may be the effect or the level left
[18] = Cmax in Sprague-Dawley rat at 1 mg/kg, iv measured upto 24 hrs by LC-MS/MS analysis; type: ADME, organism-based; parameters: dose 1 mg/kg, time < 24 hrs, route iv; details: in vivo
[19] = Effect on parathyroid hormone in overnight fasted Sprague-Dawley rat assessed as reduction in plasma PTH level at 10 mg/kg, po measured after 2 hrs of post treatment by sandwich ELISA analysis; type: functional; parameters: scale not given: the % may be the effect or the level left
[20] = biological target: T2, Extracellular calcium-sensing receptor (Homo sapiens, UniProt P41180); experiment: Agonist activity at human CaSR expresssed in HEK293 cells in presence of glucose by Fluo4NW dye based FLIPR assay; type: functional, cell-based; details: read-out: EC50
T2 sequence (P41180 whole entry): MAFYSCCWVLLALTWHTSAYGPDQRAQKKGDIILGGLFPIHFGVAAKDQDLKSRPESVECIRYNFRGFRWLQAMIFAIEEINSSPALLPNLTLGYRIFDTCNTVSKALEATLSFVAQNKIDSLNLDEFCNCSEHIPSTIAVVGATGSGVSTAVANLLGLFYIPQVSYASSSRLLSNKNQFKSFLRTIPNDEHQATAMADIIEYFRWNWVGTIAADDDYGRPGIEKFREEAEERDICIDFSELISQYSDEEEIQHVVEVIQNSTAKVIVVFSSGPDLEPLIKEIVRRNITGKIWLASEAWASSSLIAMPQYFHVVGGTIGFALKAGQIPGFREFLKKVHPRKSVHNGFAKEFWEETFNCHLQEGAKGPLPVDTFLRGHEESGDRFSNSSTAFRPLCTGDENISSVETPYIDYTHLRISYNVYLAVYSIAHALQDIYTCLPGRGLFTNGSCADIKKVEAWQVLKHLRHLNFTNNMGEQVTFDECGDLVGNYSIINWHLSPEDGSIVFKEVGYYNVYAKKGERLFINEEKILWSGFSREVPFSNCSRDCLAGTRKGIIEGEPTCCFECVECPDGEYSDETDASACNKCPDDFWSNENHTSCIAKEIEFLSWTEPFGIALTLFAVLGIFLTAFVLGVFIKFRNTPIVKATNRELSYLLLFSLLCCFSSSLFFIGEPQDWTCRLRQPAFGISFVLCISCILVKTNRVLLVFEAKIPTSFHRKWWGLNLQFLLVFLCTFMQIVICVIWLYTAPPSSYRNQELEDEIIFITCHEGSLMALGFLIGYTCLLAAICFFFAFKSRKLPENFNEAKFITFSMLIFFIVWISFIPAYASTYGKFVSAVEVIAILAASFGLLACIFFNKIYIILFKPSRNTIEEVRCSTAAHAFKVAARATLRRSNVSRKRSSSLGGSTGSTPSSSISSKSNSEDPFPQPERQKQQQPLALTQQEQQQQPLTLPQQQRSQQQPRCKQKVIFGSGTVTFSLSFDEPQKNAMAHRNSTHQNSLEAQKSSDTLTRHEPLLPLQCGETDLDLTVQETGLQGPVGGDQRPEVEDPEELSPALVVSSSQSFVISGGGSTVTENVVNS

[21] = system: Rattus norvegicus; experiment: Effect on parathyroid hormone in po dosed overnight fasted Sprague-Dawley rat assessed as reduction in plasma PTH level measured after 0.5 to 6 hrs of post treatment by sandwich ELISA analysis; type: functional, organism-based; details: dose 3-30 mg/kg, time 0.5-6 hrs
[22] = system: Rattus norvegicus; experiment: Acute effect on parathyroid hormone in overnight fasted adenine diet-induced chronic kidney disease Wistar rat model assessed as reduction in plasma PTH level at 10 mg/kg, po measured after 2 hrs of post treatment by sandwich ELISA analysis; type: functional; parameters: scale not given: the % may be the effect or the level left
[23] = Tmax in Sprague-Dawley rat at 10 mg/kg, po measured upto 24 hrs by LC-MS/MS analysis; type: ADME, organism-based; details: in vivo
[24] = system: Rattus norvegicus; experiment: Acute effect on parathyroid hormone in overnight fasted adenine diet-induced chronic kidney disease Wistar rat model assessed as reduction in plasma PTH level at 10 mg/kg, po measured after 1 hrs of post treatment by sandwich ELISA analysis; type: functional; parameters: scale not given: the % may be the effect or the level left
[25] = AUClast in Sprague-Dawley rat at 10 mg/kg, po measured upto 24 hrs by LC-MS/MS analysis; type: ADME, organism-based; parameters: dose 10 mg/kg, time < 24 hrs, route po; details: in vivo
[26] = biological target: Cytochrome P450 2D6 (Homo sapiens, UniProt P10635); experiment: Inhibition of CYP2D6 in human liver microsomes preincubated for 5 mins followed by NADPH addition by LC-MS/MS analysis; type: ADME, Microsome
[27] = Effect on parathyroid hormone in overnight fasted Sprague-Dawley rat assessed as reduction in plasma PTH level at 10 mg/kg, po measured after 4 hrs of post treatment by sandwich ELISA analysis (reference value: 18%); type: functional; parameters: scale not given: the % may be the effect or the level left
[28] = Cmax in Sprague-Dawley rat at 10 mg/kg, po measured upto 24 hrs by LC-MS/MS analysis; type: ADME, organism-based; parameters: time < 24 hrs, dose 10 mg/kg, route po; details: in vivo
[29] = biological target: T1, hERG; experiment: Inhibition of hERG at 10 uM relative to control; type: toxicity
[30] = Oral bioavailability in Sprague-Dawley rat at 10 mg/kg measured upto 24 hrs by LC-MS/MS analysis; type: ADME, organism-based; details: in vivo
[31] = system: Rattus norvegicus; experiment: Subchronic effect on parathyroid hormone in overnight fasted adenine diet-induced chronic kidney disease Wistar rat model plasma assessed as reduction in plasma PTH level at 3 mg/kg, po qd measured after 27 days of post treatment by sandwich ELISA analysis; type: functional; parameters: scale not given: the % may be the effect or the level left; details: time 27 day
[32] = Effect on parathyroid hormone in overnight fasted Sprague-Dawley rat assessed as reduction in plasma PTH level at 10 mg/kg, po measured after 0.5 hrs of post treatment by sandwich ELISA analysis; type: functional; parameters: scale not given: the % may be the effect or the level left
[33] = Half life in Sprague-Dawley rat at 1 mg/kg, iv measured upto 24 hrs by LC-MS/MS analysis; type: ADME, organism-based; details: in vivo
[34] = AUClast in Sprague-Dawley rat at 1 mg/kg, iv measured upto 24 hrs by LC-MS/MS analysis; type: ADME, organism-based; parameters: dose 1 mg/kg, time < 24 hrs, route iv; details: in vivo
[35] = biological target: T3, CYP2D6 (Homo sapiens, UniProt P10635); experiment: Inhibition of CYP2D6 in human liver microsomes at 10 uM preincubated for 5 mins followed by NADPH addition by LC-MS/MS analysis relative to control; type: ADME, Microsome
[36] = Effect on parathyroid hormone in overnight fasted Sprague-Dawley rat plasma assessed as reduction in PTH level at 30 mg/kg, po measured after 0.5 hrs of post treatment by sandwich ELISA analysis; type: functional; parameters: scale not given: the % may be the effect or the level left
[37] = Effect on parathyroid hormone in overnight fasted Sprague-Dawley rat assessed as reduction in plasma PTH level at 30 mg/kg, po measured after 4 hrs of post treatment by sandwich ELISA analysis; type: functional; parameters: scale not given: the % may be the effect or the level left
[38] = biological target: T3, CYP2D6; experiment: Inhibition of CYP2D6 in human liver microsomes at 1 uM preincubated for 5 mins followed by NADPH addition by LC-MS/MS analysis relative to control; type: ADME, Microsome
[39] = Tmax in Sprague-Dawley rat at 1 mg/kg, iv measured upto 24 hrs by LC-MS/MS analysis; type: ADME, organism-based; details: in vivo
[40] = Effect on parathyroid hormone in overnight fasted Sprague-Dawley rat assessed as reduction in plasma PTH level at 30 mg/kg, po measured after 1 hrs of post treatment by sandwich ELISA analysis; type: functional; parameters: scale not given: the % may be the effect or the level left
[41] = Effect on parathyroid hormone in overnight fasted Sprague-Dawley rat assessed as reduction in plasma PTH level at 10 mg/kg, po measured after 1 hrs of post treatment by sandwich ELISA analysis; type: functional; parameters: scale not given: the % may be the effect or the level left
[42] = Effect on parathyroid hormone in overnight fasted Sprague-Dawley rat assessed as reduction in plasma PTH level at 30 mg/kg, po measured after 2 hrs of post treatment by sandwich ELISA analysis; type: functional; parameters: scale not given: the % may be the effect or the level left

T1 sequence (Q12809 whole entry): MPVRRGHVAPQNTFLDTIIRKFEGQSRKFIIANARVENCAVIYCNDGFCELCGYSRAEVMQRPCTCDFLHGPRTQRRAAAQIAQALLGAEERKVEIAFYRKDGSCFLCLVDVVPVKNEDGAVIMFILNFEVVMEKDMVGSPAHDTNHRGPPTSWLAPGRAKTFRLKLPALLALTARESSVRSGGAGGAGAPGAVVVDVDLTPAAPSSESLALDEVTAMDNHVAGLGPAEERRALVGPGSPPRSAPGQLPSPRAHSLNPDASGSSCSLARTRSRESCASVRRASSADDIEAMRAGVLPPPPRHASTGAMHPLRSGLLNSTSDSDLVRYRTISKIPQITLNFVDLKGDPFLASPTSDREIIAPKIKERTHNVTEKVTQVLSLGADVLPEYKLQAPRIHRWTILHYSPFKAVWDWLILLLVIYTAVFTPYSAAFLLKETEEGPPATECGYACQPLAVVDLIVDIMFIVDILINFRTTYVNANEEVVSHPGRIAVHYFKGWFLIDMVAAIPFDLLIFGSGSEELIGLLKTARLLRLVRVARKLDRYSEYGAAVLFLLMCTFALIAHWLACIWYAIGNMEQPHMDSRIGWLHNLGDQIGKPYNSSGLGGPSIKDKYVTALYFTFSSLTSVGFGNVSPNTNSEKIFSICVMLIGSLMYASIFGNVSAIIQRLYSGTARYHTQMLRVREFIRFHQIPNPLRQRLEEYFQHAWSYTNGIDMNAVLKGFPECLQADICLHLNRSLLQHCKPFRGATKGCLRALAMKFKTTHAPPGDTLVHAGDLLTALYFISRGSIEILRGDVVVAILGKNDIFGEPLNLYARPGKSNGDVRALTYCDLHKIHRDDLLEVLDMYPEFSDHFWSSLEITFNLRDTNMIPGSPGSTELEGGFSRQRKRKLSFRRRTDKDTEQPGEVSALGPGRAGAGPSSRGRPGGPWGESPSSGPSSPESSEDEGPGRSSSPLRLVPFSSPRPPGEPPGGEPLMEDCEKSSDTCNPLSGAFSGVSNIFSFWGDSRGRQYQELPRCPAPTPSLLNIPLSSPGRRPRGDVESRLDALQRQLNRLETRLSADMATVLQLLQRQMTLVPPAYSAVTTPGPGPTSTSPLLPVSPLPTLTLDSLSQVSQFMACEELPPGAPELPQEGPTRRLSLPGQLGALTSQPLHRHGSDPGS
T3 sequence (P10635 whole entry): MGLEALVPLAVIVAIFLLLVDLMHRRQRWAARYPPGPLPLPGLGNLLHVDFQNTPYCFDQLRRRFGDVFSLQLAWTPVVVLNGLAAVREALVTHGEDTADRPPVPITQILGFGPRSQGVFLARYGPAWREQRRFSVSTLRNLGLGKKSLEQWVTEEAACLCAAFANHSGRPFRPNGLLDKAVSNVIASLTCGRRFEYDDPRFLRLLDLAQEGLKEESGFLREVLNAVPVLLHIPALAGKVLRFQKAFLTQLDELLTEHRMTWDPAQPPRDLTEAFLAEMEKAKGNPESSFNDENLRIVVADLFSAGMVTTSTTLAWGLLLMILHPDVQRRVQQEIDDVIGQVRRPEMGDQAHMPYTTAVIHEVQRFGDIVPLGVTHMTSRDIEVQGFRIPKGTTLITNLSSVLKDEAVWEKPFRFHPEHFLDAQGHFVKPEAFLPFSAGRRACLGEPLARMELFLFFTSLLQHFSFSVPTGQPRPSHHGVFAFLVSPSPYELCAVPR
Chain of Cytochrome P450 2D6 (P10635 whole entry): as above

Compound	remaining at 0.5 h, 1 µM [3] [%]	remaining at 0.5 h, 1 µM [5] [%]	inhibition at 1 µM [14] [%]	Vd [15] [L/kg]	clearance [16] [mL/min/kg]	Cmax [18] [nM]	Activity [19] [%]	EC50 [20] [nM]	Tmax [23] [h]	AUC(0-t) at 24 h [25] [µM·h]	Activity [27] [%]	Cmax [28] [nM]	inhibition at 10 µM [29] [%]	bioavailability [30] [%]	Activity [32] [%]	half-life [33] [h]	AUC(0-t) at 24 h [34] [µM·h]	other results
C[C@@H](N[C@H]1CCN(c2ccc(CC(=O)O)cc2)C1)c1cccc2ccccc12 [EVOCALCET]	34	68	–	–	–	–	–	–	–	–	–	–	–	–	–	–	–	clearance at 24 h [1]: 1.67 mL/min/kg; AUC(0-t) at 24 h [2]: 8.03 µM·h; AUC(0-t) at 24 h [4]: 23 µM·h; half-life at 24 h [6]: 6.13 h; Cmax at 24 h [7]: 270 nM; Tmax at 24 h [8]: 0.81 h; Vd at 24 h [9]: 0.591 L/kg; Cmax at 24 h [10]: 5840 nM; half-life at 24 h [11]: 7.32 h
C[C@@H](NCCCc1cccc(C(F)(F)F)c1)c1cccc2ccccc12 [CINACALCET]	4	65	19	23	44	500	99	4	0.5	1.9	74	270	97	19	92	6	1.02	Activity [12]: 71%; Activity [13]: 58%; Activity [17]: 61%; Activity [21]: Dose-Dependent Effect; Activity [22]: 97%; Activity [24]: 92%; IC50 [26]: > 50000 nM; Activity [31]: 37%
Cc1ccc(N2CC(CN[C@H](C)c3cccc4ccccc34)Oc3ccccc32)cc1C(=O)O.Cl (stereo partly specified)	55	45	7	1	5	5000	100	7	0.05	55	66	13000	14	79	100	3	7	inhibition at 10 µM [35]: 47%; Activity [36]: 100%; Activity [37]: 92%; inhibition at 1 µM [38]: 44%; Tmax [39]: 4.8 min; Activity [40]: 97%; Activity [41]: 86%; Activity [42]: 100%
